# Patent publication US4198506A, “2-Carboxyalkyl-2,3-dihydro-6-mercapto-s-triazolo[4,3-b]-pyridazin-3-ones” (Bristol-Myers Company, priority 1979, dated 1980)
# Where two headings read alike, the source gives them in different places.
# What was measured:
# Format in all cases: cell-based
# [1] = tested on: S. marcescens; experiment: In vitro activity (geometric mean MIC, serial dilution); settings: Serratia marcescens; 16 strains; Mueller-Hinton agar, inoculum 10^4 dilution; MIC cutoff 200 mcg./ml.; read-out: Geometric Mean MIC
# [2] = tested on: E. coli (sensitive); experiment: as above; settings: Escherichia coli; 13 strains; Mueller-Hinton agar, inoculum 10^4 dilution; MIC cutoff 200 mcg./ml.; read-out: Geometric Mean MIC
# [3] = tested on: Enterobacter (sensitive); experiment: as above; settings: read-out: Geometric Mean MIC
# [4] = tested on: Proteus (indole-); experiment: as above; settings: read-out: Geometric Mean MIC
# [5] = tested on: Providencia sp.; experiment: as above; settings: 5 strains, Mueller-Hinton agar, inoculum 10^4 dilution, MIC cutoff 200 mcg./ml., read-out: Geometric Mean MIC
# [6] = tested on: Proteus (indole +); experiment: as above; settings: 14 strains; Mueller-Hinton agar, inoculum 10^4 dilution; MIC cutoff 200 mcg./ml.; read-out: Geometric Mean MIC
# [7] = tested on: S. pyogenes; experiment: as above; settings: Streptococcus pyogenes; 10 strains; Mueller-Hinton agar, inoculum 10^4 dilution; MIC cutoff 200 mcg./ml.
# [8] = tested on: Serr. marcescens; experiment: In vitro antibacterial activity (Steers' agar dilution MIC); settings: Serratia marcescens
# [9] = tested on: Sal. typhosa; experiment: as above
# From the text: (§1) In vitro Antibacterial Activity of BB-S493 Compared with
# (§2) BB-S479 and Cefamandole (Determined by Steers' Agar Dilu-
# (§3) tion Method on Mueller-Hinton Agar Plate)
# (§4) In vitro antibacterial activity of BB-S 525 compared with
# (§5) BB-S 479 and cefamandole (determined by Steers' agar dilution
# (§6) method on Mueller-Hinton agar plate)
# [10] = tested on: S. aureus; experiment: as above; settings: Staphylococcus aureus
# From the text: as §1, §2, §3, §4, §5, §6
# [11] = tested on: Shig. sonnei; experiment: as above; settings: Shigella sonnei
# From the text: as §1, §2, §3, §4, §5, §6
# [12] = tested on: Kl. pneumoniae; experiment: as above; settings: Klebsiella pneumoniae
# From the text: as §1, §2, §3, §4, §5, §6
# [13] = tested on: Shig. flexneri; experiment: as above
# From the text: as §1, §2, §3, §4, §5, §6
# [14] = tested on: E. coli; experiment: as above; settings: Escherichia coli
# From the text: as §1, §2, §3, §4, §5, §6
# [15] = tested on: Pr. morganii; experiment: as above; settings: Morganella morganii, read-out: MIC
# [16] = tested on: S. aureus (Methicillin-R); experiment: In vitro activity (geometric mean MIC, serial dilution); settings: Staphylococcus aureus; 15 strains; Mueller-Hinton agar, inoculum 10^4 dilution; MIC cutoff 200 mcg./ml.
# [17] = tested on: Ps. aeruginosa; experiment: In vitro antibacterial activity (Steers' agar dilution MIC)
# [18] = tested on: B. anthracis; experiment: microbe, parasite or virus in culture; settings: Bacillus anthracis
# [19] = tested on: Enterobacter (Cephalosporinase +); experiment: In vitro activity (geometric mean MIC, serial dilution); settings: 7 strains, Mueller-Hinton agar, inoculum 10^4 dilution, MIC cutoff 200 mcg./ml.
# [20] = tested on: Pr. vulgaris; experiment: In vitro antibacterial activity (Steers' agar dilution MIC); settings: Proteus vulgaris, read-out: MIC
# [21] = tested on: Pr. rettgeri; experiment: as above; settings: Providencia rettgeri
# [22] = tested on: Shig. dysenteriae; experiment: as above; settings: Shigella dysenteriae
# [23] = tested on: St. faecalis; experiment: as above; settings: Enterococcus faecalis, read-out: MIC
# [24] = tested on: Sal. enteritidis; experiment: as above; settings: Salmonella enterica
# [25] = tested on: S. aureus penicillinase+); experiment: In vitro activity (geometric mean MIC, serial dilution); settings: Staphylococcus aureus, read-out: Geometric Mean MIC
smiles,measurement,setting,value
"CNCc1ccccc1CC(=O)N[C@@H]1C(=O)N2C(C(=O)O)=C(CSc3ccc4nn(CC(=O)O)c(=O)n4n3)CS[C@H]12 [BB-S479, 7-[o-(Methylaminomethyl)phenylacetamido]-3-(2-carboxymethyl-2,3-dihydro-s-triazolo[4,3-b]pyridazin-3-on-6-ylthiomethyl)-3-cephem-4-carboxylic Acid]",MIC,[1],35 mg/L
same,MIC,[2],0.2 mg/L
same,MIC,[3],0.5 mg/L
same,MIC,[4],0.5 mg/L
same,MIC,[5],4.2 mg/L
same,MIC,[6],0.2 mg/L
same,MIC,[7],0.04 mg/L
same,MIC,"[8]; table 4 (BB-S 525), Serr. marcescens",12.5 mg/L
same,MIC,"[8]; table 2 (BB-S493), Serr. marcescens A20019, read-out: MIC",25 mg/L
same,MIC,"[9]; table 2 (BB-S493), Sal. typhosa A9498",0.05 mg/L
same,MIC,"[9]; table 4 (BB-S 525), Sal. typhosa",0.1 mg/L
same,MIC,"[10]; table 2 (BB-S493), S. aureus A9497",0.1 mg/L
same,MIC,"[10]; table 2 (BB-S493), S. aureus BX-1633 A9606",0.4 mg/L
same,MIC,"[10]; table 2 (BB-S493), S. aureus Smith A9537",0.4 mg/L
same,MIC,"[10]; table 4 (BB-S 525), S. aureus (strain not given)",0.2 mg/L
same,MIC,"[10]; table 4 (BB-S 525), S. aureus BX-1633",0.8 mg/L
same,MIC,"[10]; table 4 (BB-S 525), S. aureus Smith",0.4 mg/L
same,MIC,"[11]; table 2 (BB-S493), Shig. sonnei A9516",0.025 mg/L
same,MIC,"[11]; table 4 (BB-S 525), Shig. sonnei",0.1 mg/L
same,MIC,"[12]; table 2 (BB-S493), Kl. pneumoniae A9678",0.4 mg/L
same,MIC,"[12]; table 2 (BB-S493), Kl. pneumoniae A9867",0.1 mg/L
same,MIC,"[12]; table 2 (BB-S493), Kl. pneumoniae A9977",0.1 mg/L
same,MIC,"[12]; table 2 (BB-S493), Kl. pneumoniae A15130",0.1 mg/L
same,MIC,"[12]; table 4 (BB-S 525), Kl. pneumoniae, 1st line",0.8 mg/L
same,MIC,"[12]; table 4 (BB-S 525), Kl. pneumoniae, 2nd line",0.1 mg/L
same,MIC,"[12]; table 4 (BB-S 525), Kl. pneumoniae, 3rd line",0.2 mg/L
same,MIC,"[12]; table 4 (BB-S 525), Kl. pnuemoniae, 4th line",0.2 mg/L
same,MIC,"[13]; Shigella flexneri, table 2 (BB-S493), Shig. flexneri A9684, read-out: MIC",12.5 mg/L
same,MIC,"[13]; table 4 (BB-S 525), Shig. flexneri",12.5 mg/L
same,MIC,"[14]; ATCC8739, table 2 (BB-S493), E. coli ATCC 8739, read-out: MIC",0.05 mg/L
same,MIC,"[14]; ATCC8739, table 4 (BB-S 525), E. coli ATCC 8739",3.1 mg/L
same,MIC,"[14]; table 2 (BB-S493), E. coli A9660, read-out: MIC",0.05 mg/L
same,MIC,"[14]; table 2 (BB-S493), E. coli A15147, read-out: MIC",3.1 mg/L
same,MIC,"[14]; table 2 (BB-S493), E. coli A15810, read-out: MIC",0.1 mg/L
same,MIC,"[14]; table 2 (BB-S493), E. coli BX-1373, read-out: MIC",0.2 mg/L
same,MIC,"[14]; table 2 (BB-S493), E. coli Juhl A15119, read-out: MIC",0.1 mg/L
same,MIC,"[14]; table 2 (BB-S493), E. coli NIHJ, read-out: MIC",0.05 mg/L
same,MIC,"[14]; table 4 (BB-S 525), E. coli BX-1373, read-out: MIC",0.2 mg/L
same,MIC,"[14]; table 4 (BB-S 525), E. coli Juhl, read-out: MIC",0.2 mg/L
same,MIC,"[14]; table 4 (BB-S 525), E. coli NIHJ, read-out: MIC",0.1 mg/L
same,MIC,"[14]; table 4 (BB-S 525), E. coli, strain not given, 1st line, read-out: MIC",0.1 mg/L
same,MIC,"[14]; table 4 (BB-S 525), E. coli, strain not given, 2nd line, read-out: MIC",0.05 mg/L
same,MIC,"[14]; table 4 (BB-S 525), E. coli, strain not given, 3rd line, read-out: MIC",3.1 mg/L
same,MIC,"[15]; table 2 (BB-S493), Pr. morganii A9553",> 100 mg/L
same,MIC,"[15]; table 2 (BB-S493), Pr. morganii A20031",0.1 mg/L
same,MIC,"[15]; table 4 (BB-S 525), Pr. morganii, 1st line",> 100 mg/L
same,MIC,"[15]; table 4 (BB-S 525), Pr. morganii, 2nd line",0.2 mg/L
same,MIC,[16],35 mg/L
same,MIC,"[17]; Pseudomonas aeruginosa, table 2 (BB-S493), Ps. aeruginosa A9843, read-out: MIC",> 100 mg/L
same,MIC,"[17]; table 2 (BB-S493), Ps. aerugionsa A9930",> 100 mg/L
same,MIC,"[17]; table 4 (BB-S 525), Ps. aeruginosa, 1st line",> 100 mg/L
same,MIC,"[17]; table 4 (BB-S 525), Ps. aeruginosa, 2nd line",> 100 mg/L
same,MIC,"[18]; table 2 (BB-S493), B. anthracis A9504",0.025 mg/L
same,MIC,"[18]; table 4 (BB-S 525), B. anthracis",0.2 mg/L
same,MIC,[19],2.1 mg/L
same,MIC,"[20]; table 2 (BB-S493), Pr. vulgaris A9436",0.1 mg/L
same,MIC,"[20]; table 2 (BB-S493), Pr. vulgaris A9699",0.8 mg/L
same,MIC,"[20]; table 4 (BB-S 525), Pr. vulgaris, 1st line",0.2 mg/L
same,MIC,"[20]; table 4 (BB-S 525), Pr. vulgaris, 2nd line",0.8 mg/L
same,MIC,"[21]; table 2 (BB-S493), Pr. rettgeri A15167",0.1 mg/L
same,MIC,"[21]; table 4 (BB-S 525), Pr. rettgeri",0.8 mg/L
same,MIC,"[22]; table 2 (BB-S493), Shig dysenteriae",0.025 mg/L
same,MIC,"[22]; table 4 (BB-S 525), Shig. dysenteriae",0.1 mg/L
same,MIC,"[23]; table 2 (BB-S493), St. faecalis A9536",100 mg/L
same,MIC,"[23]; table 4 (BB-S 525), St. faecalis",> 100 mg/L
same,MIC,"[24]; table 2 (BB-S493), Sal. enteritidis A9531",0.05 mg/L
same,MIC,"[24]; table 4 (BB-S 525), Sal. enteritidis",0.1 mg/L
same,MIC,[25],0.9 mg/L
